Experiments:
[1] = system: granule cells of the dentate gyrus; experiment: Stereology of the DG: total number of granule cells; assay type: in vivo, mouse; conditions: 5.0 mg/kg P3-P15
Experimental: Euploid and Ts65Dn mice received a daily subcutaneous injection (at 9-10 am) of 7,8-DHF (5.0 mg/kg in vehicle: PBS with 1% DMSO) or vehicle from postnatal day 3 (P3) to postnatal day 15. This timing was chosen because it corresponds to that previously used to test the effects of fluoxetine and other pharmacotherapies in the neonate Ts65Dn mouse (Bianchi et al., 2010b; Giacomini et al., 2015; Stagni et al., 2016). Mice that received 7,8-DHF will be called “treated mice” (treated euploid mice: n=25; treated Ts65Dn mice: n=15). Mice that received the vehicle will be called “untreated mice” (untreated euploid mice: n=35; untreated Ts65Dn mice: n=21). […]
Unbiased stereology was performed on Hoechst-stained sections from P15 mice. […] Granule cell nuclei were counted with a ×64 oil objective (1.4 NA). Granule cell nuclei intersecting the uppermost focal plane and intersecting the exclusion lines of the count frame were not counted. […]
where Q is the number of particles counted in the disectors, dis is the number of disectors and Vdis is the volume of the disector. For calculation of Vdis the disector height was corrected for section shrinkage in the z-plane (Dorph Petersen et al., 2001) according to the formula: h=counting thickness×(original thickness/measured thickness). The section thickness was measured during neuron counting at different random locations. […]

[2] = system: proliferating cells in the SVZ; experiment: Prenatal treatment: BrdU-positive cells in the SVZ of P2 mice; assay type: in vivo, mouse
Experimental: Conception was determined by examining the vaginal plug. […] After sacrifice, brain was excised and weighed.
One of 20 sections (n=8-10) from the beginning to the end of the hippocampal formation were subjected to double-fluorescence immunohistochemistry for BrdU and NeuN. Sections were incubated overnight at 4° C. with a primary antibody, rat monoclonal anti-BrdU antibody (AbD Serotec), diluted 1:100 in 0.1% Triton X-100 in PBS and either mouse monoclonal anti-NeuN (Millipore Bioscience Research Reagents) diluted 1:400 in 0.1% Triton X-100 in PBS. Sections were then washed in 0.1% Triton X-100 in PBS for 40 min and incubated for 2 h with a Cy3-conjugated anti-rat IgG (1:200; Jackson Immunoresearch) secondary fluorescent antibody for BrdU immunohistochemistry and FITC-conjugated anti-mouse IgG (1:200; Jackson Immunoresearch) for NeuN immunohistochemistry.
BrdU-positive cells were sampled in the caudal subventricular zone (SVZ) of the lateral ventricle overlying the dentate gyrus and from the subgranular zone (SGZ) of the dentate gyrus (FIG. 10A). The caudal SVZ is the region that stretches from the beginning to the end of the hippocampal formation (BC: 3.27-4.84 mm). Since different regions of the ventricular zone (VZ) and SVZ give origin to neurons destined to different telecephalic areas (Brazel et al., 2003), we evaluated the effects of treatment both in the dorsal and lateral part of the SVZ (FIG. 10B). For cell counting, an area was traced enclosing the whole SVZ and all cells in this area were counted. While at later life stages, neural progenitor cells are only present in the SGZ of the dentate gyrus, in P2 pups proliferating cells can be detected in the perspective molecular layer and hilus. Therefore, cells were counted within a manually-traced area enclosing the whole dentate gyrus (FIG. 10B). […] Quantification of BrdU-labeled nuclei was conducted in every 20th section. The total number of BrdU labeled cells in the SVZ and SGZ was estimated by multiplying the number counted in the sampled sections by the inverse of the section sampling fraction (ssf= 1/20).

TrkB receptor = TrkB receptor (Homo sapiens, UniProt Q16620); conditions: Liu et al., 2010 and 2013; cited from earlier work
Chain of TrkB receptor (Q16620 32-822): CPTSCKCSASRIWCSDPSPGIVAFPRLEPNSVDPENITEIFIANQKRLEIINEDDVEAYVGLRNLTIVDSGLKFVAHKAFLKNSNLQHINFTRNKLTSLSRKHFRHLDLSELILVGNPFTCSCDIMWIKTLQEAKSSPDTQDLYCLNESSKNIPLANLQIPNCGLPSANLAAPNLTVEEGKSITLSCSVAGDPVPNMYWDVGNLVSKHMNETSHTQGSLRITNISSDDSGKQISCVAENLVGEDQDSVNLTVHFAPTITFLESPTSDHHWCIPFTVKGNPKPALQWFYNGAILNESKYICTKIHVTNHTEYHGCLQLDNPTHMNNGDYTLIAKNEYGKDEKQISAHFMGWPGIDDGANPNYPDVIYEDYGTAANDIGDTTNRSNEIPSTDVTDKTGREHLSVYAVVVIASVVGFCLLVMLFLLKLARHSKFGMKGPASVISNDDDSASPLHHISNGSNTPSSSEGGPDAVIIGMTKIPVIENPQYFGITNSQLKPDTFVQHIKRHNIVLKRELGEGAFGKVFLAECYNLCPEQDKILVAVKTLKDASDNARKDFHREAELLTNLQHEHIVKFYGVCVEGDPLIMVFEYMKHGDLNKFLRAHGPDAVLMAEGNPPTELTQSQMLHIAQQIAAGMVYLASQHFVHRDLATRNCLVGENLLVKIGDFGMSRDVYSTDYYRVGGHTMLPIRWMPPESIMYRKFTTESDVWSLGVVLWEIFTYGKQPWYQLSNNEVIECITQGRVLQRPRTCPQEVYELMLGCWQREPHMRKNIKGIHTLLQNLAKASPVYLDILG

Q: With `O=c1cc(-c2ccccc2)oc2c(O)c(O)ccc12` [7,8-DHF, 7,8-dihydroxyflavone] as the molecule, how does the “total number of granule cells” value ([1]; P15 Ts65Dn mice) read?
A: Its value is “became similar to that of untreated euploid mice”.

Q: What about the “total number of granule cells” value ([1]; P15 euploid mice) of the same molecule?
A: Its value is “no effect on total number of granule cells”.

Q: And the “total number of BrdU-positive cells in the SVZ, treated Ts65Dn vs untreated euploid mice” value ([2]; P2, treated E10-E20/21)?
A: The value was “no differences in total number of BrdU-positive cells”.

Q: And the “total number of BrdU-positive cells in the SVZ” value ([2]; P2 Ts65Dn mice, dams 5 mg/kg s.c. E10-E20/21, untreated Ts65Dn approx. 22500, euploid approx. 32300)?
A: Its value is “approximately 33900”.

Q: What about the “increase in cell number in the SVZ vs untreated Ts65Dn” value ([2]; P2 Ts65Dn mice, treated E10-E20/21) of the same molecule?
A: Its value is “+50%”.

Q: And the “binding to the TrkB receptor” value (TrkB receptor)?
A: The value was “high affinity and specificity”.
